# Assay results published in US7101915B1, “P-terphenyl compounds” (Shionogi & Co., Ltd., priority 1996, dated 2006).
# Tests used:
# Assay type in all cases: cell-based
# Settings in all cases: EL-4, TPA 10 ng/ml, 24 hours, ELISA; for IC50: Mus musculus, T-cell
# [1] = test system: IL-2 production of mouse T cell strain EL-4 (TPA); assay: Suppressive effect on the cytokine production of mouse T cell strain EL-4: IL-2
# Protocol: (§1) Experiment 8 Suppressive Effect on the Cytokine Production of a Mouse T Cell Strain EL-4 In 48-well plate were added 2×10^5 mouse T cell strain EL-4 which were suspended in 0.2 ml of 1% fetal bovine serum-added RPMI 1640 medium (2 mM of sodium bicarbonate, 50 units/ml of penicillin, 50 μg/ml of streptomycin and 5×10^−5 M of 2-mercaptoethanol were added) and the compound of the present invention of a predetermined concentration. TPA was added as a cell stimulater at a final concentration of 10 ng/ml to adjust a final volume of each well to 0.4 ml. Each compound of the present invention was dissolved in DMSO and diluted with the above RPMI 1640 medium, and then for added at a final concentration of 100 ng/ml or less. The cells in the 48-well plate were cultivated in an incubator keeping the humidity 100%, carbon dioxide 5% and air 95% at 37° C. for 24 hours to collect a supernatant of each well. The amount of IL-2, IL-4 and IL-5 released in the medium of each well were measured with the ELISA kit (Amersham K. K.) to be taken as an index of the cytokine production of the cells. TPA free group (-TPA) was used as a control.
# [2] = test system: IL-5 production of mouse T cell strain EL-4 (TPA); assay: Suppressive effect on the cytokine production of mouse T cell strain EL-4: IL-5
# Protocol: as §1
# [3] = test system: IL-4 production of mouse T cell strain EL-4 (TPA); assay: Suppressive effect on the cytokine production of mouse T cell strain EL-4: IL-4
# Protocol: as §1
SMILES,IC50 IL-2 [1],IC50 IL-5 [2],IC50 IL-4 [3],IC50 [1],IC50 [2],IC50 [3]
COc1cc(-c2ccc(F)cc2)c(OC)c(O)c1-c1ccc(OCc2ccccc2)c(O)c1 [Compound I-4],>0.5 µg/mL,0.12 µg/mL,0.014 µg/mL,–,–,–
COc1cc(-c2ccc(O)cc2)c(OC)c(O)c1-c1ccc(OC/C=C(\C)CCC=C(C)C)c(O)c1 [Compound I-37],>0.5 µg/mL,0.11 µg/mL,0.007 µg/mL,–,–,–
COc1cc(-c2ccc(C(F)(F)F)cc2)c(OC)c(O)c1-c1ccc(OCC=C(C)C)c(O)c1 [Compound I-190],>0.1 µg/mL,0.01 µg/mL,0.007 µg/mL,–,–,–
COc1cc(-c2ccc(O)cc2)c(OC)c(O)c1-c1ccc(OCc2cc(C)cc(C)c2)c(O)c1 [Compound I-209],>0.2 µg/mL,0.012 µg/mL,0.014 µg/mL,–,–,–
COc1cc(-c2ccc(O)cc2)c(OC)c(O)c1-c1ccc(OCC(C)=C(C)C)c(O)c1 [Compound I-213],>1 µg/mL,0.023 µg/mL,0.025 µg/mL,–,–,–
COc1cc(-c2cccc(C(F)(F)F)c2)c(OC)c(O)c1-c1ccc(OCCC=C(C)C)c(O)c1 [Compound I-220],>1 µg/mL,0.72 µg/mL,0.15 µg/mL,–,–,–
COc1cc(-c2ccc(O)cc2)c(OC)c(O)c1-c1ccc(SCc2ccccn2)c(O)c1 [Compound I-223],1 µg/mL,0.045 µg/mL,0.016 µg/mL,–,–,–
COc1cc(-c2ccc(O)cc2)c(OC)c(O)c1-c1ccc(S(=O)(=O)CC=C(C)C)c(O)c1 [Compound I-226],0.88 µg/mL,0.3 µg/mL,0.017 µg/mL,–,–,–
COc1cc(-c2ccc(O)cc2)c(OC)c(C)c1-c1ccc(OCCC=C(C)C)c(O)c1 [Compound I-229],>1 µg/mL,0.08 µg/mL,0.042 µg/mL,–,–,–
COc1cc(-c2ccc(SC)cc2)c(OC)c(O)c1-c1ccc(OCc2ccccc2)c(O)c1 [Compound I-233],>1 µg/mL,0.0038 µg/mL,0.012 µg/mL,–,–,–
COC(=O)c1ccc(-c2cc(OC)c(-c3ccc(OCc4ccccc4)c(O)c3)c(O)c2OC)cc1 [Compound I-237],>0.1 µg/mL,0.1 µg/mL,0.017 µg/mL,–,–,–
COc1cc(-c2ccc(C)cc2)c(OC)c(O)c1-c1ccc(OCCC=C(C)C)c(O)c1 [Compound I-279],>1 µg/mL,0.09 µg/mL,0.038 µg/mL,–,–,–
COc1cc(-c2ccc(O)cc2)c(OC)c(O)c1-c1ccc(OC/C=C/CO)c(O)c1 [Compound I-296],>1 µg/mL,0.047 µg/mL,0.07 µg/mL,–,–,–
COc1cc(-c2ccc(O)cc2)c(OC)c(O)c1-c1ccc(OCC=NNC(N)=O)c(O)c1 [Compound I-302],>1 µg/mL,0.28 µg/mL,0.025 µg/mL,–,–,–
COc1cc(-c2ccc(F)cc2)c(OC)c(C=O)c1-c1ccc(OCC=C(C)C)c(F)c1 [Compound I-379],>1 µg/mL,>1 µg/mL,0.088 µg/mL,–,–,–

# The remaining lines, values ahead:
IC50 IL-2 [1],IC50 IL-5 [2],IC50 IL-4 [3],IC50 [1],IC50 [2],IC50 [3],SMILES
>2 µg/mL,1 µg/mL,0.0002 µg/mL,–,–,–,COc1cc(-c2ccc(OCC=C(C)C)c(OS(C)(=O)=O)c2)c(OC)cc1-c1ccc(OS(C)(=O)=O)cc1 [Compound I-70]
>10 µg/mL,1 µg/mL,0.14 µg/mL,–,–,–,COc1cc(-c2ccc(OS(C)(=O)=O)cc2)c(OC)c(OS(C)(=O)=O)c1-c1ccc(OCc2ccccc2)c(C=O)c1 [Compound I-83]
>10 µg/mL,0.45 µg/mL,0.14 µg/mL,–,–,–,COc1cc(-c2ccc(OS(C)(=O)=O)cc2)c(OC)c(OS(C)(=O)=O)c1-c1cc(C=O)c(OCC=C(C)C)c(OS(C)(=O)=O)c1 [Compound I-128]
>10 µg/mL,11 µg/mL,0.1 µg/mL,–,–,–,COc1cc(-c2ccc(OS(C)(=O)=O)cc2)c(OC)c(OS(C)(=O)=O)c1-c1ccc(OCc2ccccc2)c(C(N)=O)c1 [Compound I-148]
>10 µg/mL,10 µg/mL,0.1 µg/mL,–,–,–,COc1cc(-c2ccc(C(F)(F)F)cc2)c(OC)c(OS(C)(=O)=O)c1-c1ccc(OCC=C(C)C)c(OS(C)(=O)=O)c1 [Compound I-189]
>2 µg/mL,<0.02 µg/mL,<0.02 µg/mL,–,–,–,COc1cc(-c2ccc(OS(C)(=O)=O)cc2)c(OC)c(OS(C)(=O)=O)c1-c1ccc(OCc2c(C)cc(C)cc2C)c(OS(C)(=O)=O)c1 [Compound I-202]
>1 µg/mL,0.03 µg/mL,0.021 µg/mL,–,–,–,COc1cc(-c2ccc(OS(C)(=O)=O)cc2)c(OC)c(C)c1-c1ccc(OCCC=C(C)C)c(OS(C)(=O)=O)c1 [Compound I-228]
>1 µg/mL,0.02 µg/mL,0.013 µg/mL,–,–,–,COc1cc(-c2ccc(OS(C)(=O)=O)cc2)c(OC)c(C)c1-c1ccc(OCc2ccc(C)cc2)c(OS(C)(=O)=O)c1 [Compound I-230]
>1 µg/mL,>1 µg/mL,0.035 µg/mL,–,–,–,COC(=O)c1ccc(-c2cc(OC)c(-c3ccc(OCc4ccccc4)c(OS(C)(=O)=O)c3)c(OS(C)(=O)=O)c2OC)cc1 [Compound I-238]
–,–,–,> 1 µg/mL,0.9 µg/mL,0.054 µg/mL,COC(=O)c1ccc(-c2cc(OC)c(-c3ccc(OCc4ccc(C)cc4)c(OS(C)(=O)=O)c3)c(OS(C)(=O)=O)c2OC)cc1 [Compound I-239]
>1 µg/mL,0.88 µg/mL,0.1 µg/mL,–,–,–,COc1cc(-c2ccc(N(C)C)cc2)c(OC)c(OS(C)(=O)=O)c1-c1ccc(OCC=C(C)C)c(OS(C)(=O)=O)c1 [Compound I-242]
–,–,–,> 0.5 µg/mL,> 0.55 µg/mL,0.063 µg/mL,COc1cc(-c2ccc(OS(C)(=O)=O)cc2)c(OC)c(CO)c1-c1ccc(OCc2ccccc2)c(CO)c1 [Compound I-243]
>0.5 µg/mL,0.13 µg/mL,<0.005 µg/mL,–,–,–,COc1ccccc1-c1cc(OC)c(-c2ccc(OCc3ccc(C)cc3)c(O)c2)c(O)c1OC [Compound I-282]
>1 µg/mL,0.34 µg/mL,0.01 µg/mL,–,–,–,COc1cc(-c2ccc(OS(C)(=O)=O)cc2)c(OC)c(OS(C)(=O)=O)c1-c1ccc(OCc2ccc(C(C)C)cc2)c(OS(C)(=O)=O)c1 [Compound I-305]
>1 µg/mL,0.023 µg/mL,0.052 µg/mL,–,–,–,COc1cc(-c2ccc(OS(C)(=O)=O)cc2)c(OC)c(OS(C)(=O)=O)c1-c1ccc(OCc2ccc3ccccc3n2)c(OS(C)(=O)=O)c1 [Compound I-307]
>0.5 µg/mL,0.01 µg/mL,0.029 µg/mL,–,–,–,COc1cc(-c2ccc(O)cc2)c(OC)c(O)c1-c1ccc(OCc2ccc(C)cc2C)c(O)c1 [Compound I-309]
>1 µg/mL,0.38 µg/mL,0.072 µg/mL,–,–,–,COc1cc(-c2c(OC)cc(-c3ccc(OS(C)(=O)=O)cc3)c(OC)c2CO)c(OC)cc1OCc1ccc(C)cc1 [Compound I-368]
